Measurements from patent publication US20220002816A1, “IDENTIFICATION OF JUND TARGET GENES FOR INHIBITION OF PROSTATE CANCER CELL GROWTH” (Center for Cancer Research & Therapeutic Development, Clark …, priority 2018, published 2022).

Legend:
Format in all cases: cell-based, Human
[1] = test system: DU145 JunD overexpressed (D1) cells; experiment: Cell proliferation assay (cell counting) after JQ1 treatment; conditions: 5 μM JQ1, 72 hrs, DU145 D1 (JunD overexpressing) cells, vs DMSO control, p<0.001
Description: (§1) Human prostate cancer cell lines (PC3 and DU145) were purchased from ATCC (Manassas, Va.). Cells were cultured in the recommended growth media [MEM media supplemented with 5% fetal bovine serum (FBS)] in 100% humidity at 37° C. with 5% CO2 as described previously. DU145 cells overexpressing JunD (D1), generated from a previous study were cultured as above, with an addition of […] G418 [29].
(§2) DU145 vector and DU145 JunD overexpressed (D1) cells plated at a density of 2×10^4 cells/ml in 24 well plates (for cell proliferation assays) or at a density of 1.5×10^5 cell/ml in 6 well plates (for cell lysates) were treated in the presence or absence of 5 μM JQ1 for 72 hrs. Control cells were treated with DMSO. Cells were then counted using a hemacytometer and cell lysates were collected for western blot analyses.

DU145 vector cells = experiment: as above; conditions: 5 μM JQ1, 72 hrs, vs DMSO control, p<0.001
Description: as §1, §2

[2] = test system: JunD target genes protein levels in DU145 JunD overexpressed (D1) cells; experiment: Western blot of JunD target gene protein levels after JQ1 treatment; conditions: 5 μM JQ1, 72 hrs
Description: as §2
(§3) Following siRNA transient transfections, PC3 and DU145 cell lysates from several independent experiments were collected as previously described. In brief, equal amounts of protein (50 μg) were separated by electrophoresis using 10% SDS-polyacrylamide gels and then transferred to PVDF membranes (Millipore, Billerica, Mass.). After being blocked with 5% milk, the membranes were incubated with specific primary antibodies (1:800 dilution for JunD; 1:500 dilution for anti-PRDX3, anti-CDK2, anti-CDK4, anti-KIF2C, anti-EIF1, anti-PEA15, anti-CCNA1, anti-ADRA2B, anti-TCF4, anti-ANAX2, anti-ELMO2, and anti-ERO1-La; 1:200 dilution for anti-PLCD4, anti-c-MYC, and anti-PTMA; 1:3000 dilution for anti-α-Tubulin) overnight at 4° C. and then incubated with appropriate horseradish peroxidase-conjugated secondary antibody for 1 h. […] The relative intensities of specific protein were determined by ImageJ software (NIH version: 1.8.0_112).

[3] = test system: JunD target genes protein levels in DU145 vector cells; experiment: as above; conditions: 5 μM JQ1, 72 hrs
Description: as §2, §3

SMILES: Cc1sc2c(c1C)C(c1ccc(Cl)cc1)=N[C@@H](CC(=O)OC(C)(C)C)c1nnc(C)n1-2 [JQ1]
- cell proliferation [1]: significantly reduced
- cell proliferation (DU145 vector cells): significantly reduced
- JunD target genes protein levels [2]: decreased
- JunD target genes protein levels [3]: decreased
